Numbering of substitutions follows the chain as printed.
Legend:
[1] = target: T1, SULT2B1b, S347D, W98A (Homo sapiens, UniProt O00204, S347D/W98A); experiment: Initial-rate parameters, direct-contact mutant W98A
T1 sequence (O00204 1-365 W98A/S347D): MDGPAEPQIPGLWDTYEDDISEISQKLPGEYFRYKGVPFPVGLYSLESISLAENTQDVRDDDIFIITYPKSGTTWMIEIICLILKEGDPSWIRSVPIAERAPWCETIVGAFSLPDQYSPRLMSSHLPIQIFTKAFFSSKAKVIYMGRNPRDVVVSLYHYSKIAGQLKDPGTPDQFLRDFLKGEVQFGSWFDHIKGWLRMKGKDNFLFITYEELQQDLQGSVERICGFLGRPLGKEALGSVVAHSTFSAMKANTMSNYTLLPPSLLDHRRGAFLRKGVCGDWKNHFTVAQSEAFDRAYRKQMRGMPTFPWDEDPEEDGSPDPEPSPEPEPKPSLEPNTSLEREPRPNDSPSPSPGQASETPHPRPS

[2] = target: T2, SULT2B1b, S347D, Y257A (Homo sapiens, UniProt O00204, S347D/Y257A); experiment: Initial-rate parameters, direct-contact mutant Y257A
T2 sequence (O00204 1-365 Y257A/S347D): T1 sequence (O00204 1-365 W98A/S347D) with A98W, Y257A

[3] = target: T3, SULT2B1b S347D (Homo sapiens, UniProt O00204, S347D); experiment: Initial-rate 1-HP sulfonation
T3 sequence (O00204 1-365 S347D): T1 sequence (O00204 1-365 W98A/S347D) with A98W

[4] = target: T4, SULT2B1b C81S, C225S, C278S, S347D (Homo sapiens, UniProt O00204, C225S/C278S/C81S/S347D); experiment: Initial-rate parameters, non DTNB-reactive scaffold; format: biochemical
T4 sequence (O00204 1-365 C81S/C225S/C278S/S347D): T1 sequence (O00204 1-365 W98A/S347D) with C81S, A98W, C225S, C278S

[5] = target: T5, SULT2B1b S347D spin-labeled at residue 247 (Homo sapiens, UniProt O00204, C225S/C278S/C81S/S247C/S347D); experiment: Initial-rate parameters, spin-labeled mutant 247; format: biochemical
T5 sequence (O00204 1-365 C81S/C225S/S247C/C278S/S347D): T1 sequence (O00204 1-365 W98A/S347D) with C81S, A98W, C225S, S247C, C278S

O=c1c(O)c(-c2ccc(O)c(O)c2)oc2cc(O)cc(O)c12 [quercetin]
Ki [1]: 5300 nM | Ki [2]: 1600 nM | quercetin affinity, SULT2B1b relative to SULT1A1 ([3]; affinity less for SULT2B1b than SULT1A1): ~ 68 fold | slowing of turnover at saturating quercetin ([3]; at saturation): ~ 13 fold | α (fraction of enzyme turnover at saturating inhibitor), quercetin ([3]; saturating PAPS and 1-HP, tag-cleaved enzyme): 0.08 ± 0.01 | turnover at saturating quercetin ([3]; saturating quercetin): 0.20 ± 0.02 s⁻¹ | Ki [4]: 300 nM | Ki [5]: 320 nM
